Results: patent publication US10588950B2, “Compositions and methods for counteracting Factor Xa inhibition” (Pfizer Inc., priority 2013, dated 2020)

Legend:
[1] = tested on: whole blood clot formation; assay: Whole blood rotational thromboelastometry (ROTEM); format: cell-based, human
Procedure: Whole blood thromboelastometry was used to assess the ability of the FXa^I16L variant to reverse the effects of the direct FXa inhibitors in whole blood. In this system, blood is drawn from healthy volunteers. The first 2 mL of blood were discarded and the subsequent 5 mL of blood was collected into a vacutainer (BID, Franklin Lakes, N.J.). Corn trypsin inhibitor and sodium citrate were in the collection tube, prior to collection of the blood sample, to achieve a final concentration of 0.105 M citrate and 25 μg/mL corn trypsin inhibitor (Haematologic Technologies, Burlington, Vt.) in the blood. Two sets of reactions were analyzed for each donor. The initial reaction initiated 5 minutes post blood collection. The second reaction initiated 1 hour post initiation of first reaction (1 hour 5 minutes after collection).
Blood was analyzed using Thromboelastometry ROTEM® delta (Tem International GmbH, Munich, Germany). For the reaction: (1) 6 μL of vehicle, protein, and/or inhibitor were added to the empty cup, (2) 20 μl of 0.2 M CaCl2 (final concentration 11.6 mM), and (3) 20 μl of Innovin (final concentration in reaction 1:10,000; source of tissue factor) were added to the cup. Whole blood collected as described above was added to the reaction (300 up and recordings were allowed to proceed for approximately 30-60 minutes. The data collected was analyzed using the manufacture's software. (Rotem Gamma Software Version 1.1.1).

FXa^I16L = FXa^I16L (Homo sapiens, UniProt P00742, I235L); assay: Inhibition of free FXa^I16L peptidyl substrate (SpecXa) hydrolysis by rivaroxaban; format: biochemical; conditions: free enzyme
[2] = tested on: thrombin generation in normal human plasma; assay: Thrombin generation assay (TGA) in normal human plasma, Example 2; format: biochemical; conditions: 500 nM rivaroxaban versus plasma without rivaroxaban
Procedure: The thrombin generation assay (TGA) was used to assess whether the zymogen-like FXa variants can reverse the effects of direct FXa inhibitors in a more physiologic environment. The TGA measures thrombin production in plasma over time following the initiation of coagulation and was performed as previously described (See Bunce et al., (2011) Blood 117, 290-298, incorporated by reference herein in their entirety). […] Thrombin generation was initiated with 2.0 pM tissue factor/4 uM phospholipid as well as CaCl2 and a thrombin fluorogenic substrate.

[3] = tested on: clotting time of whole blood; assay: ROTEM of whole blood from mice administered rivaroxaban and FXa^I16L in vivo; set-up: species or system C57BL/6 mice; conditions: 1 mg/kg rivaroxaban via tail vein, buffer only about 2 min
Procedure: Mice were then prepared to expose the jugular vein and the vena cava. Approximately 10 mill later FXa^I16L (1 or 2 mg/kg) was infused by direct injection into the jugular vein. Five minutes post injection blood was collected via the vena cava into citrate and corn trypsin inhibitor. Collected blood was then analyzed by ROTEM using dilute tissue factor (Innovin, 1:42,000 dilution).

[4] = tested on: thrombin generation in normal human plasma; assay: Thrombin generation assay using calibrated automated thrombography (CAT), Example 4; format: biochemical
Procedure: Normal human plasma was obtained from George King Biomedical (Overland Park, Kans.). […] Immediately preceding reaction initiation, 10 μL of vehicle or FXa^I16L was added to plasma at final concentrations ranging from 0.03125 nM to 0.5 nM FXa^I16L, given a 120 μL total reaction volume. Reactions were initiated by addition of 20 μL FluCa buffer containing calcium chloride and fluorogenic substrate. Fluorescence of plasma reactions was read at 37° C. at 20 second intervals on a Fluoroskan Ascent fluorometer and compared to those of reference thrombin calibrator reactions to determine thrombin concentrations. The intensity of the fluorescence signal (FU) was continuously monitored at 37° C. using the CAT. Thrombin generation curves (nM thrombin vs. time) were analyzed to extract lag time, peak height, time to peak, and the area under the curve representing the endogenous thrombin potential (ETP) using the Thromboscope software (Thrombinoscope BV version).

[5] = tested on: blood loss following a tail cut; conditions: mouse, in vivo, 50 mg/kg
Procedure: Thirty minutes later, mice were anesthetized with isoflurane and placed on a heated platform, and the body temperature of the mice was maintained at 37° C. prior to the tail cut. The tails were immersed in 50 mL pre-warmed phosphate buffered saline (PBS) at 37° C. for 2 minutes. A 3 mm tail cut was made and blood was collected into PBS for a 10 minute period. A quantitative assessment of the amount of bleeding was determined by hemoglobin content of the blood collected into PBS. Tubes were centrifuged to collect erythrocytes, resuspended in 5 mL lysis buffer (8.3 g/L NH4Cl, 1.0 g/L KHCO3, and 0.037 g/L EDTA), and the absorbance of the sample was measured at 575 nm. The absorbance values were converted to total blood loss (μL) using a standard curve.
Mice were then anesthetized with isoflurane and placed on a heated platform, and the body temperature of the mice was maintained at 37° C. prior to the tail cut. The tails were immersed in 50 mLs pre-warmed phosphate buffered saline (PBS) at 37° C. for 2 minutes. A 3 mm tail cut was made and blood was collected into PBS for a 10 minute period and the assessment of the amount of bleeding was determined by hemoglobin content as described.

[6] = tested on: clot formation at site of vascular injury; assay: Laser-induced injury of mouse cremaster muscle, intravital microscopy; format: in vivo; conditions: 1 mg/kg rivaroxaban
Description: Using standard techniques, the cremaster muscle of mice was exposed and visualized using intravital microscopy. A vascular injury in the muscle was then induced using a laser. After injury, clot formation was visualized using different fluorescently labeled antibodies that specifically recognize fibrin and platelets. Clotting is indicated by the presence of fluorescent signal from both types of antibodies.

[7] = high doses (supratherapeutic concentrations)
[8] = low doses (therapeutic concentrations)

Chain of FXa^I16L (P00742 41-179): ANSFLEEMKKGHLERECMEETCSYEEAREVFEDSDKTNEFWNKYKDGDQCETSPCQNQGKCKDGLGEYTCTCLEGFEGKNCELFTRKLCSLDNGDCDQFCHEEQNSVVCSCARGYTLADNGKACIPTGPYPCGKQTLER
Chain of FXa^I16L (P00742 235-488 I235L): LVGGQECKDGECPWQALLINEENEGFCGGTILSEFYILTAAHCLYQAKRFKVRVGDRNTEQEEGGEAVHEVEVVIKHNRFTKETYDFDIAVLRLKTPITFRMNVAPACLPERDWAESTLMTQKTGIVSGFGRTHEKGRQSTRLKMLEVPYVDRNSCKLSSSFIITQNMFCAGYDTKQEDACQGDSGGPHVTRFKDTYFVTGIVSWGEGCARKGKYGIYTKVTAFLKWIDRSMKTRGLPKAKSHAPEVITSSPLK

Row | SMILES | whole blood clot formation, inhibitor alone [1, 7] | whole blood clot formation, inhibitor alone [1, 8] | reduced affinity to FXa^I16L versus wild-type FXa (FXa^I16L) | thrombin generation profile of plasma [2] | clot time of whole blood (ROTEM) [3] | thrombin generation in normal human plasma ([4]; in vitro rivaroxaban treatment 5-200 nM) | ETP ([4]; rivaroxaban alone) | lag time ([4]; rivaroxaban alone) | peak thrombin ([4]; rivaroxaban alone) | blood loss following the tail transection [5] | accumulation of platelets at the injury site [6] | signs of fibrin at the injury site [6]
1 | COc1ccc(-n2nc(C(N)=O)c3c2C(=O)N(c2ccc(N4CCCCC4=O)cc2)CC3)cc1 [apixaban] | almost completely eliminated | partially eliminated |  |  |  |  |  |  |  |  |  | 
2 | O=C(NC[C@H]1CN(c2ccc(N3CCOCC3=O)cc2)C(=O)O1)c1ccc(Cl)s1 [rivaroxaban] | almost completely eliminated | partially eliminated | ~15 fold | substantially reduced | Approximately 10 min | dose dependent inhibition | decrease | increase | decrease | increase | delayed | eliminated
